Values after ≈ are worked out from the molar mass of the structure shown. Where two headings read alike, the source gives them in different places.
How the values were obtained:
[1] = test system: E. coli; test: Broth dilution MIC determination (CLSI) against E. coli strains; format: cell-based; conditions: for MIC: Escherichia coli
How it was run: (§1)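 Strains, including multidrug-resistant and macrolide-resistant ones, were exposed to macrolides in broth dilution per CLSI standards, and the lowest inhibiting concentration was recorded as MIC. Azithromycin and solithromycin were run alongside.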

[2] = test system: S. pyogenes; test: Broth dilution MIC determination (CLSI) against S. pyogenes strains; format: cell-based; conditions: for MIC: Streptococcus pyogenes
How it was run: as §1

[3] = test system: E. faecalis; test: Broth dilution MIC determination (CLSI) against E. faecalis strains; format: cell-based; conditions: for MIC: Enterococcus faecalis
How it was run: as §1

[4] = test system: P. aeruginosa; test: Broth dilution MIC determination (CLSI) against P. aeruginosa strains; format: cell-based; conditions: for MIC: Pseudomonas aeruginosa, read-out: MIC P. aeruginosa ATCC27853
How it was run: as §1

[5] = test system: S. aureus; test: Broth dilution MIC determination (CLSI) against S. aureus strains; format: cell-based; conditions: for MIC: Staphylococcus aureus
How it was run: as §1

[6] = test system: H. influenzae; test: Broth dilution MIC determination (CLSI) against H. influenzae strains; format: cell-based; conditions: for MIC: Haemophilus influenzae
How it was run: as §1

[7] = test system: K. pneumoniae; test: Broth dilution MIC determination (CLSI) against K. pneumoniae strains; format: cell-based; conditions: for MIC: Klebsiella pneumoniae
How it was run: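 Azithromycin and solithromycin served as controls; MICs were obtained by standard CLSI broth dilution on a strain panel including multidrug-resistant and macrolide-resistant isolates.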

[8] = test system: S. pneumoniae; test: Broth dilution MIC determination (CLSI) against S. pneumoniae strains; format: cell-based; conditions: for MIC: Streptococcus pneumoniae
How it was run: as §1

[9] = test system: A. baumannii; test: Broth dilution MIC determination (CLSI) against A. baumannii strains; format: cell-based; conditions: for MIC: Acinetobacter baumannii
How it was run: as §1

[10] = from C=CCOC(=O)NC[C@@H]1C[C@H](N(C)C)[C@@H](OC(=O)OC)[C@H](O[C@H]([C@@H](C)C2=C(C)C(=O)OC(C)(C)O2)[C@@](C)(C[C@@H](C)CN[C@H](C)[C@H]2N(CCCCN=[N+]=[N-])C(=O)O[C@]2(C)[C@H](O)CC)OC)O1; ester bond; chlorobenzene; 1.0 mM; 150.0 °C; 16.0 h
[11] = ATCC25922, ATCC25922, read-out: MIC E. coli ATCC25922
[12] = read-out: MIC E. coli NDM-1, NDM-1
[13] = ATCC19615, ATCC19615, read-out: MIC S. pyogenes ATCC19615
[14] = macrolide-resistant, read-out: MIC S. pyogenes macrolide-resistant
[15] = ATCC29212, ATCC29212, read-out: MIC E. faecalis ATCC29212
[16] = Vancomycin-resistant, read-out: MIC E. faecalis Vancomycin-resistant
[17] = ATCC29213, ATCC29213, read-out: MIC S. aureus ATCC29213
[18] = MRSA / USA100, MRSA: USA100, read-out: MIC S. aureus MRSA: USA100
[19] = MRSA / USA300, MRSA: USA300, read-out: MIC S. aureus MRSA: USA300
[20] = USA600, USA600, GISA, read-out: MIC S. aureus USA600, GISA
[21] = read-out: MIC S. aureus erm A genotype
[22] = ATCC49247, ATCC49247, read-out: MIC H. influenzae ATCC49247
[23] = erythro > 4, azithro 1, read-out: MIC H. influenzae erythro > 4, azithro 1
[24] = ATCC10031, ATCC10031, read-out: MIC K. pneumoniae ATCC10031
[25] = KPC-2, read-out: MIC K. pneumoniae KPC-2
[26] = ATCC49619, ATCC49619, read-out: MIC S. pneumoniae ATCC49619
[27] = erm B + mef A genotype, read-out: MIC S. pneumoniae erm B + mef A genotype
[28] = erm B + tet(M, O) genotype, read-out: MIC S. pneumoniae erm B + tet(M, O) genotype
[29] = read-out: MIC S. pneumoniae mef A genotype, mef A genotype
[30] = read-out: MIC S. pneumoniae mef A genotype, mef A genotype, first of two such columns (c3)
[31] = ATCC19606, ATCC19606, read-out: MIC A. baumannii ATCC19606
[32] = imipenem-resistant, read-out: MIC A. baumannii imipenem-resistant

## CC[C@H]1OC(=O)[C@H](C)C(=O)[C@H](C)[C@@H](O[C@@H]2OC(Cn3cc(-c4ccccn4)nn3)CC(N(C)C)C2O)[C@](C)(OC)C[C@@H](C)CN[C@H](C)[C@H]2N(CCCCn3cc(-c4cccc(N)c4)nn3)C(=O)O[C@]12C (stereo partly drawn) [FSM-22366]
[1]; ATCC25922
  MIC E. coli ATCC25922: >32 µg/mL
[1]; CTX-M-14
  MIC E. coli CTX-M-14: >32 µg/mL
[1]; NDM-1
  MIC E. coli NDM-1: >32 µg/mL
[1]; TEM-1
  MIC E. coli TEM-1: 16 µg/mL (≈ 16.5 µM)
[2]; ATCC19615
  MIC S. pyogenes ATCC19615: <0.03125 µg/mL
[2]; macrolide-resistant
  MIC S. pyogenes macrolide-resistant: 1 µg/mL (≈ 1.03 µM)
[3]; ATCC29212
  MIC E. faecalis ATCC29212: 2 µg/mL (≈ 2.06 µM)
[3]; Vancomycin-resistant
  MIC E. faecalis Vancomycin-resistant: >32 µg/mL
[4]; ATCC27853
  MIC P. aeruginosa ATCC27853: >32 µg/mL
[4]; HPA101-1477
  MIC P. aeruginosa HPA101-1477: >32 µg/mL
[5]; ATCC29213
  MIC S. aureus ATCC29213: 32 µg/mL (≈ 32.9 µM)
[5]; MRSA: USA100
  MIC S. aureus MRSA: USA100: >32 µg/mL
[5]; MRSA: USA300
  MIC S. aureus MRSA: USA300: >32 µg/mL
[5]; USA600, GISA
  MIC S. aureus USA600, GISA: >32 µg/mL
[5]; erm A genotype
  MIC S. aureus erm A genotype: >32 µg/mL
[6]; ATCC49247
  MIC H. influenzae ATCC49247: 4 µg/mL (≈ 4.11 µM)
[6]; erythro > 4, azithro 1
  MIC H. influenzae erythro > 4, azithro 1: 4 µg/mL (≈ 4.11 µM)
[7]; ATCC10031
  MIC K. pneumoniae ATCC10031: 16 µg/mL (≈ 16.5 µM)
[7]; KPC-2
  MIC K. pneumoniae KPC-2: >32 µg/mL
[7]; SHV-12
  MIC K. pneumoniae SHV-12: >32 µg/mL
[7]; TEM-10
  MIC K. pneumoniae TEM-10: 32 µg/mL (≈ 32.9 µM)
[8]; ATCC49619
  MIC S. pneumoniae ATCC49619: <0.03125 µg/mL
[8]; erm B + mef A genotype
  MIC S. pneumoniae erm B + mef A genotype: >32 µg/mL
[8]; erm B + tet(M, O) genotype
  MIC S. pneumoniae erm B + tet(M, O) genotype: <0.03125 µg/mL
[9]; ATCC19606
  MIC A. baumannii ATCC19606: >32 µg/mL
[9]; IMP-4
  MIC A. baumannii IMP-4: >32 µg/mL
[9]; chromosomal class C
  MIC A. baumannii chromosomal class C: >32 µg/mL
[9]; imipenem-resistant
  MIC A. baumannii imipenem-resistant: 32 µg/mL (≈ 32.9 µM)

## C=CCOC(=O)NC[C@@H]1C[C@H](N(C)C)[C@@H](OC(=O)OC)[C@H](O[C@@H]2[C@@H](C)C(=O)[C@@H](C)C(=O)O[C@H](CC)[C@@]3(C)OC(=O)N(CCCCN=[N+]=[N-])[C@@H]3[C@@H](C)NC[C@H](C)C[C@@]2(C)OC)O1
[10]
  ring closure, yield of all isomers: 70%

## CC[C@H]1OC(=O)[C@H](C)C(=O)[C@H](C)[C@@H](O[C@@H]2OC(CNS(=O)(=O)c3cccnc3)CC(N(C)C)C2O)[C@](C)(OC)C[C@@H](C)CN[C@H](C)[C@H]2N(CCCCn3cc(-c4cccc(N)c4)nn3)C(=O)O[C@]12C (stereo partly drawn) [FSM-21876]
[1]; [11]
  MIC: 32 µg/mL (≈ 32.5 µM)
[1]; [12]
  MIC: > 32 µg/mL
[2]; [13]
  MIC: 0.0625 µg/mL (≈ 0.0635 µM)
[2]; [14]
  MIC: 2 µg/mL (≈ 2.03 µM)
[3]; [15]
  MIC: 2 µg/mL (≈ 2.03 µM)
[3]; [16]
  MIC: > 32 µg/mL
[4]; ATCC27853
  MIC: > 32 µg/mL
[5]; [17]
  MIC: 16 µg/mL (≈ 16.3 µM)
[5]; [18]
  MIC: > 32 µg/mL
[5]; [19]
  MIC: > 32 µg/mL
[5]; [20]
  MIC: > 32 µg/mL
[5]; [21]
  MIC: > 32 µg/mL
[6]; [22]
  MIC: 4 µg/mL (≈ 4.06 µM)
[6]; [23]
  MIC: 16 µg/mL (≈ 16.3 µM)
[7]; [24]
  MIC: 16 µg/mL (≈ 16.3 µM)
[7]; [25]
  MIC: 32 µg/mL (≈ 32.5 µM)
[8]; [26]
  MIC: 0.125 µg/mL (≈ 0.127 µM)
[8]; [27]
  MIC: 8 µg/mL
[8]; [28]
  MIC: 0.0313 µg/mL
[8]; [29]
  MIC: 16 µg/mL (≈ 16.3 µM)
[8]; [30]
  MIC: 4 µg/mL (≈ 4.06 µM)
[9]; [31]
  MIC: > 32 µg/mL
[9]; [32]
  MIC: 32 µg/mL (≈ 32.5 µM)

## CC[C@H]1OC(=O)[C@H](C)C(=O)[C@H](C)[C@@H](O[C@@H]2OC(CN(CCN)CCN)CC(N(C)C)C2O)[C@](C)(OC)C[C@@H](C)CN[C@H](C)[C@H]2N(CCCCn3cc(-c4cccc(N)c4)nn3)C(=O)O[C@]12C (stereo partly drawn) [FSM-21877]
[1]; [11]
  MIC: > 32 µg/mL
[1]; [12]
  MIC: 32 µg/mL (≈ 34.4 µM)
[2]; [13]
  MIC: 0.5 µg/mL (≈ 0.538 µM)
[2]; [14]
  MIC: 16 µg/mL (≈ 17.2 µM)
[3]; [15]
  MIC: 8 µg/mL (≈ 8.61 µM)
[3]; [16]
  MIC: > 32 µg/mL
[4]; ATCC27853
  MIC: > 32 µg/mL
[5]; [17]
  MIC: > 32 µg/mL
[5]; [18]
  MIC: > 32 µg/mL
[5]; [19]
  MIC: > 32 µg/mL
[5]; [20]
  MIC: > 32 µg/mL
[5]; [21]
  MIC: > 32 µg/mL
[6]; [22]
  MIC: 32 µg/mL (≈ 34.4 µM)
[6]; [23]
  MIC: 32 µg/mL (≈ 34.4 µM)
[7]; [24]
  MIC: 16 µg/mL (≈ 17.2 µM)
[7]; [25]
  MIC: 32 µg/mL (≈ 34.4 µM)
[8]; [26]
  MIC: 1 µg/mL (≈ 1.08 µM)
[8]; [27]
  MIC: 32 µg/mL
[8]; [28]
  MIC: 0.5 µg/mL
[8]; [29]
  MIC: 16 µg/mL (≈ 17.2 µM)
[8]; [30]
  MIC: 8 µg/mL (≈ 8.61 µM)
[9]; [31]
  MIC: > 32 µg/mL
[9]; [32]
  MIC: > 32 µg/mL

Reference: patent US11535643B2, “Macrolides with modified desosamine sugars and uses thereof” (President and Fellows of Harvard College, priority 2015, dated 2022)
